{"source": "paper PMC8480901", "about": "(PLoS ONE, 2021)", "system": "human PBMCs", "experiment": "LPS-induced cytokine and chemokine levels in human PBMC supernatant (Luminex, ELISA)", "assay_type": "cell-based", "settings": "for CCl2, % reduction / CXCL1 % reduction / CXCL2 % reduction / MMP9 % reduction / CCl2, Mean / CXCL1, Mean / CXCL2, Mean / MMP9, Mean / CCl2, individual value / CXCL1, individual value / CXCL2, individual value / MMP9, individual value: LPS-stimulated PBMC supernatant; for CCl2, Mean / CXCL1, Mean / CXCL2, Mean / MMP9, Mean: sample size 2; for CCl2, individual value / CXCL1, individual value / CXCL2, individual value / MMP9, individual value: single replicate", "key": {"[1]": {"settings": "LPS-stimulated human PBMC supernatant, 0.03 µM"}}, "note": "Where “and” joins values, the source holds several entries; their conditions need not be identical. Equal values may be shown once.", "data": [{"smiles": "CC[C@H]1OC(=O)[C@H](C)[C@@H](O[C@H]2C[C@@](C)(OC)[C@@H](O)[C@H](C)O2)[C@H](C)[C@@H](O[C@@H]2O[C@H](C)C[C@H](N(C)C)[C@H]2O)[C@](C)(O)C[C@@H](C)CN(C)[C@H](C)[C@@H](O)[C@]1(C)O", "note": "[Azithromycin]", "values": [{"measurement": "CCl2, % reduction", "setting": "0.03 µM", "value": -5.55, "unit": "%"}, {"measurement": "CXCL1 % reduction", "setting": "0.03 µM", "value": -4.76, "unit": "%"}, {"measurement": "CXCL2 % reduction", "setting": "0.03 µM", "value": 2.43, "unit": "%"}, {"measurement": "MMP9 % reduction", "setting": "0.03 µM", "value": -1.46, "unit": "%"}, {"measurement": "CCl2, Mean", "setting": "0.03 µM", "value": 1334, "unit": "pg/mL"}, {"measurement": "CXCL1, Mean", "setting": "0.03 µM", "value": 6234, "unit": "pg/mL"}, {"measurement": "CXCL2, Mean", "setting": "0.03 µM", "value": 4935, "unit": "pg/mL"}, {"measurement": "MMP9, Mean", "setting": "0.03 µM", "value": 3019, "unit": "pg/mL"}, {"measurement": "CCl2, individual value", "setting": "0.03 µM", "value": "1307 pg/mL and 1361 pg/mL"}, {"measurement": "CXCL1, individual value", "setting": "0.03 µM", "value": "6199 pg/mL and 6268 pg/mL"}, {"measurement": "CXCL2, individual value", "setting": "0.03 µM", "value": "5023 pg/mL and 4847 pg/mL"}, {"measurement": "MMP9, individual value", "setting": "0.03 µM", "value": "3072 pg/mL and 2966 pg/mL"}, {"measurement": "CCl2, % reduction", "setting": "0.1 µM", "value": -0.293, "unit": "%"}, {"measurement": "CXCL1 % reduction", "setting": "0.1 µM", "value": -0.522, "unit": "%"}, {"measurement": "CXCL2 % reduction", "setting": "0.1 µM", "value": 4.49, "unit": "%"}, {"measurement": "MMP9 % reduction", "setting": "0.1 µM", "value": -3.72, "unit": "%"}, {"measurement": "CCl2, Mean", "setting": "0.1 µM", "value": 1270, "unit": "pg/mL"}, {"measurement": "CXCL1, Mean", "setting": "0.1 µM", "value": 5984, "unit": "pg/mL"}, {"measurement": "CXCL2, Mean", "setting": "0.1 µM", "value": 4831, "unit": "pg/mL"}, {"measurement": "MMP9, Mean", "setting": "0.1 µM", "value": 3056, "unit": "pg/mL"}, {"measurement": "CCl2, individual value", "setting": "0.1 µM", "value": "1278 pg/mL and 1261 pg/mL"}, {"measurement": "CXCL1, individual value", "setting": "0.1 µM", "value": "6035 pg/mL and 5932 pg/mL"}, {"measurement": "CXCL2, individual value", "setting": "0.1 µM", "value": "4923 pg/mL and 4739 pg/mL"}, {"measurement": "MMP9, individual value", "setting": "0.1 µM", "value": "3040 pg/mL and 3071 pg/mL"}, {"measurement": "CCl2, % reduction", "setting": "0.3 µM", "value": -5.66, "unit": "%"}, {"measurement": "CXCL1 % reduction", "setting": "0.3 µM", "value": -5, "unit": "%"}, {"measurement": "CXCL2 % reduction", "setting": "0.3 µM", "value": 1.16, "unit": "%"}, {"measurement": "MMP9 % reduction", "setting": "0.3 µM", "value": -0.427, "unit": "%"}, {"measurement": "CCl2, Mean", "setting": "0.3 µM", "value": 1335, "unit": "pg/mL"}, {"measurement": "CXCL1, Mean", "setting": "0.3 µM", "value": 6237, "unit": "pg/mL"}, {"measurement": "CXCL2, Mean", "setting": "0.3 µM", "value": 4999, "unit": "pg/mL"}, {"measurement": "MMP9, Mean", "setting": "0.3 µM", "value": 3002, "unit": "pg/mL"}, {"measurement": "CCl2, individual value", "setting": "0.3 µM", "value": "1355 pg/mL and 1316 pg/mL"}, {"measurement": "CXCL1, individual value", "setting": "0.3 µM", "value": "6416 pg/mL and 6058 pg/mL"}, {"measurement": "CXCL2, individual value", "setting": "0.3 µM", "value": "4805 pg/mL and 5194 pg/mL"}, {"measurement": "MMP9, individual value", "setting": "0.3 µM", "value": "2940 pg/mL and 3064 pg/mL"}, {"measurement": "CCl2, % reduction", "setting": "1 µM", "value": -3.46, "unit": "%"}, {"measurement": "CXCL2 % reduction", "setting": "1 µM", "value": 5.46, "unit": "%"}, {"measurement": "MMP9 % reduction", "setting": "1 µM", "value": 0.166, "unit": "%"}, {"measurement": "CCl2, Mean", "setting": "1 µM", "value": 1309, "unit": "pg/mL"}, {"measurement": "CXCL1, Mean", "setting": "1 µM", "value": 6015, "unit": "pg/mL"}, {"measurement": "CXCL2, Mean", "setting": "1 µM", "value": 4782, "unit": "pg/mL"}, {"measurement": "MMP9, Mean", "setting": "1 µM", "value": 2992, "unit": "pg/mL"}, {"measurement": "CCl2, individual value", "setting": "1 µM", "value": "1330 pg/mL and 1287 pg/mL"}, {"measurement": "CXCL1, individual value", "setting": "1 µM", "value": "6000 pg/mL and 6030 pg/mL"}, {"measurement": "CXCL2, individual value", "setting": "1 µM", "value": "4905 pg/mL and 4659 pg/mL"}, {"measurement": "MMP9, individual value", "setting": "1 µM", "value": 2945, "unit": "pg/mL"}, {"measurement": "CCl2, % reduction", "setting": "3 µM", "value": -21, "unit": "%"}, {"measurement": "CXCL1 % reduction", "setting": "3 µM", "value": -11, "unit": "%"}, {"measurement": "CXCL2 % reduction", "setting": "3 µM", "value": -6, "unit": "%"}, {"measurement": "MMP9 % reduction", "setting": "3 µM", "value": -3.25, "unit": "%"}, {"measurement": "CCl2, Mean", "setting": "3 µM", "value": 1528, "unit": "pg/mL"}, {"measurement": "CXCL1, Mean", "setting": "3 µM", "value": 6579, "unit": "pg/mL"}, {"measurement": "CXCL2, Mean", "setting": "3 µM", "value": 5371, "unit": "pg/mL"}, {"measurement": "MMP9, Mean", "setting": "3 µM", "value": 3048, "unit": "pg/mL"}, {"measurement": "CCl2, individual value", "setting": "3 µM", "value": "1488 pg/mL and 1567 pg/mL"}, {"measurement": "CXCL1, individual value", "setting": "3 µM", "value": "6461 pg/mL and 6697 pg/mL"}, {"measurement": "CXCL2, individual value", "setting": "3 µM", "value": "5747 pg/mL and 4996 pg/mL"}, {"measurement": "MMP9, individual value", "setting": "3 µM", "value": "3040 pg/mL and 3056 pg/mL"}, {"measurement": "CCl2, % reduction", "setting": "10 µM", "value": -56, "unit": "%"}, {"measurement": "CXCL1 % reduction", "setting": "10 µM", "value": -10, "unit": "%"}, {"measurement": "CXCL2 % reduction", "setting": "10 µM", "value": 2, "unit": "%"}, {"measurement": "MMP9 % reduction", "setting": "10 µM", "value": 7.45, "unit": "%"}, {"measurement": "CCl2, Mean", "setting": "10 µM", "value": 1950, "unit": "pg/mL"}, {"measurement": "CXCL1, Mean", "setting": "10 µM", "value": 6547, "unit": "pg/mL"}, {"measurement": "CXCL2, Mean", "setting": "10 µM", "value": 4953, "unit": "pg/mL"}, {"measurement": "MMP9, Mean", "setting": "10 µM", "value": 2874, "unit": "pg/mL"}, {"measurement": "CCl2, individual value", "setting": "10 µM", "value": "1899 pg/mL and 2002 pg/mL"}, {"measurement": "CXCL1, individual value", "setting": "10 µM", "value": "6457 pg/mL and 6637 pg/mL"}, {"measurement": "CXCL2, individual value", "setting": "10 µM", "value": "4894 pg/mL and 5012 pg/mL"}, {"measurement": "MMP9, individual value", "setting": "10 µM", "value": "2884 pg/mL and 2864 pg/mL"}, {"measurement": "CCl2, % reduction", "setting": "30 µM", "value": -138, "unit": "%"}, {"measurement": "CXCL1 % reduction", "setting": "30 µM", "value": 8, "unit": "%"}, {"measurement": "CXCL2 % reduction", "setting": "30 µM", "value": 10, "unit": "%"}, {"measurement": "MMP9 % reduction", "setting": "30 µM", "value": 5, "unit": "%"}, {"measurement": "CCl2, Mean", "setting": "30 µM", "value": 2956, "unit": "pg/mL"}, {"measurement": "CXCL1, Mean", "setting": "30 µM", "value": 5474, "unit": "pg/mL"}, {"measurement": "CXCL2, Mean", "setting": "30 µM", "value": 4573, "unit": "pg/mL"}, {"measurement": "MMP9, Mean", "setting": "30 µM", "value": 2917, "unit": "pg/mL"}, {"measurement": "CCl2, individual value", "setting": "30 µM", "value": "3047 pg/mL and 2865 pg/mL"}, {"measurement": "CXCL1, individual value", "setting": "30 µM", "value": "5594 pg/mL and 5354 pg/mL"}, {"measurement": "CXCL2, individual value", "setting": "30 µM", "value": "4609 pg/mL and 4537 pg/mL"}, {"measurement": "MMP9, individual value", "setting": "30 µM", "value": "2925 pg/mL and 2908 pg/mL"}, {"measurement": "CCl2, % reduction", "setting": "100 µM", "value": -63, "unit": "%"}, {"measurement": "CXCL1 % reduction", "setting": "100 µM", "value": 55, "unit": "%"}, {"measurement": "CXCL2 % reduction", "setting": "100 µM", "value": 16, "unit": "%"}, {"measurement": "CCl2, Mean", "setting": "100 µM", "value": 2038, "unit": "pg/mL"}, {"measurement": "CXCL1, Mean", "setting": "100 µM", "value": 2693, "unit": "pg/mL"}, {"measurement": "CXCL2, Mean", "setting": "100 µM", "value": 4264, "unit": "pg/mL"}, {"measurement": "MMP9, Mean", "setting": "100 µM", "value": 2975, "unit": "pg/mL"}, {"measurement": "CCl2, individual value", "setting": "100 µM", "value": "1970 pg/mL and 2105 pg/mL"}, {"measurement": "CXCL1, individual value", "setting": "100 µM", "value": 2693, "unit": "pg/mL"}, {"measurement": "CXCL2, individual value", "setting": "100 µM", "value": "4200 pg/mL and 4328 pg/mL"}, {"measurement": "MMP9, individual value", "setting": "100 µM", "value": "2977 pg/mL and 2972 pg/mL"}, {"measurement": "GM-CSF % reduction", "setting": "[1]", "value": 1.46, "unit": "%"}, {"measurement": "GM-CSF [pg/mL], Mean", "setting": "[1]", "value": 648, "unit": "pg/mL"}, {"measurement": "GM-CSF [pg/mL], individual value", "setting": "[1]", "value": "664 pg/mL and 632 pg/mL"}, {"measurement": "IL-1β % reduction", "setting": "[1]", "value": 4.49, "unit": "%"}, {"measurement": "IL-1β [pg/mL], Mean", "setting": "[1]", "value": 12211, "unit": "pg/mL"}, {"measurement": "IL-1β [pg/mL], individual value", "setting": "[1]", "value": 11901, "unit": "pg/mL"}, {"measurement": "IL-6 % reduction", "setting": "[1]", "value": -0.732, "unit": "%"}, {"measurement": "IL-6 [pg/mL], Mean", "setting": "[1]", "value": 35164, "unit": "pg/mL"}, {"measurement": "IL-6 [pg/mL], individual value", "setting": "[1]", "value": "34554 pg/mL and 35775 pg/mL"}, {"measurement": "IL-8 % reduction", "setting": "[1]", "value": -1.46, "unit": "%"}, {"measurement": "IL-8 [pg/mL], Mean", "setting": "[1]", "value": 3019, "unit": "pg/mL"}, {"measurement": "IL-8 [pg/mL], individual value", "setting": "[1]", "value": "3072 pg/mL and 2966 pg/mL"}, {"measurement": "TNF-α % reduction", "setting": "[1]", "value": -24, "unit": "%"}]}]}
